We go through 13 molecules from patent publication US20230265116A1, “DEGRADATION OF (EGFR) BY CONJUGATION OF EGFR INHIBITORS WITH E3 LIGASE LIGAND AND METHODS OF USE” (BEIGENE, LTD., priority 2020, published 2023).

For assay [1], the target named is T1, EGFR L858R/T790M/C797S (BaF3-LTC cells) (Homo sapiens, UniProt P00533, C797S/L858R/T790M).
T1 construct: expressed in transfected cells; host or cells: BaF3
In words: EGFR degradation HTRF assay, BaF3-LTC cells. The assay is classed as cell-based. To be noted: BaF3-LTC cells; for DC50: EGFR degradation, IC50 (DC50) from curve fit, read-out: DC50(nM) BaF3-LTC; for Dmax: maximum percentage of inhibition (degradation), read-out: Dmax (%) BaF3-LTC. A digest of the protocol:
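Cells treated 16 h at 37 °C, 5% CO2 in medium with 0.2% DMSO; top final concentration 10 uM, 5-fold dilution, 8 doses. Lysates read by HTRF (665/620 nm); degradation % versus DMSO high control, DC50 from four-parameter fit, Dmax as maximal degradation.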

Assay [2] relates to EGFR Del19/T790M/C797S (H1975-clone #28). In words: EGFR degradation HTRF assay, H1975-clone #28 DTC cells. It counts as cell-based. Particulars: H1975 # 28 DTC cells; for DC50: EGFR degradation, IC50 (DC50) from curve fit, read-out: DC50(nM) H1975 # 28 DTC; for Dmax (%) H1975 # 28 DTC: maximum percentage of inhibition (degradation). In a few lines: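 Engineered H1975 lines (lentiviral mutant EGFR, endogenous EGFR knocked out, single-clone verified); 16h compound, 37° C., 5% CO2, 0.2% DMSO; 8-point 5-fold series from 10 uM final. HTRF lysate read; % degradation vs DMSO, four-parameter fit → DC50, Dmax.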

T1 sequence (P00533 25-1210 T790M/C797S/L858R): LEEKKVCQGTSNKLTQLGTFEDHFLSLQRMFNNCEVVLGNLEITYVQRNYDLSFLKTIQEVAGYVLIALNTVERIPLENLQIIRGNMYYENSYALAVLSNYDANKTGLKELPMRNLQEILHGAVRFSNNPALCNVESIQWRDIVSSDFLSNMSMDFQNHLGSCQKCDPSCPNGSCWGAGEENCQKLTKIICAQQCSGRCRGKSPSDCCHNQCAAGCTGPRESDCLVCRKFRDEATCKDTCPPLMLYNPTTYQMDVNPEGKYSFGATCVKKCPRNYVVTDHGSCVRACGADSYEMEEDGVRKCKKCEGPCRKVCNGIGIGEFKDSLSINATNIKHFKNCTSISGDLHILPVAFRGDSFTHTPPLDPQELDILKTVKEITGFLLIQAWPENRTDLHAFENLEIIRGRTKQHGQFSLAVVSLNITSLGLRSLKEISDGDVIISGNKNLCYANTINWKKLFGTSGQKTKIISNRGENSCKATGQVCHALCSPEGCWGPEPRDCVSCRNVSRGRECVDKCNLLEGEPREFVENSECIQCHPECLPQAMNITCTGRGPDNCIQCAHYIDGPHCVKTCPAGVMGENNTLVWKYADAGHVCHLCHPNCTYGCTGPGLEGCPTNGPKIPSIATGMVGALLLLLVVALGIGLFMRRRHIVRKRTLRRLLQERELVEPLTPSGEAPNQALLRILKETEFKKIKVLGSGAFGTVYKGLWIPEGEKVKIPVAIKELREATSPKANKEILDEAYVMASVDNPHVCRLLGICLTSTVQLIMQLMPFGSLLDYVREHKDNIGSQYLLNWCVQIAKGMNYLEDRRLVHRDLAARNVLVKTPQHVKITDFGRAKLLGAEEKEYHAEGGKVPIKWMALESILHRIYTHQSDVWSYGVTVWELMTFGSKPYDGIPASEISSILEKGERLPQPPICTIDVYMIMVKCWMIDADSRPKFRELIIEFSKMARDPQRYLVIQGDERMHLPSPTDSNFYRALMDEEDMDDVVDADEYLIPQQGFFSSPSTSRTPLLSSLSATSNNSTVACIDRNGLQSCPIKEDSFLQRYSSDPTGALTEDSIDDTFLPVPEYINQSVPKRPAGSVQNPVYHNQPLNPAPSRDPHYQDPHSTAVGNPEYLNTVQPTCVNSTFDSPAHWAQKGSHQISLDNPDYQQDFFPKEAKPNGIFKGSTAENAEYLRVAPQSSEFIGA

For `CCc1cc(Nc2ncc(Br)c(Nc3ccc4nc(NC5CC5)ccc4c3P(C)(C)=O)n2)c(OC)cc1N1CCC(N2CCN(C(=O)[C@@H]3CCN(c4cc(F)c([C@H]5CCC(=O)NC5=O)c(F)c4)C3)CC2)CC1` [Example 652, (R)-3-(4-((R)-3-(4-(1-(4-((5-bromo-4-((2-(cyclopropylamino)-5-(dimethylphosphoryl)quinolin-6-yl)amino)pyrimidin-2-yl)amino)-2-ethyl-5-methoxyphenyl)piperidin-4-yl)piperazine-1-carbonyl)pyrrolidin-1-yl)-2,6-difluorophenyl)piperidine-2,6-dione], in assay [1], the half-maximal degradation concentration (DC50) amounted to 5.23 nM and the Dmax was 81.1%. In addition, in assay [2], the DC50 was 1.35 nM and the “Dmax (%) H1975 # 28 DTC” value is recorded as 86.65%.

As for `CCc1cc(Nc2ncc(Br)c(Nc3cc(F)c4nc(C)ccc4c3P(C)(C)=O)n2)c(OC)cc1N1CCC(N2CCN(CCc3ccc4c(c3)oc(=O)n4C3CCC(=O)NC3=O)CC2)CC1` (centres unmarked) [Example 536, 3-(6-(2-(4-(1-(4-((5-bromo-4-((5-(dimethylphosphoryl)-8-fluoro-2-methylquinolin-6-yl)amino)pyrimidin-2-yl)amino)-2-ethyl-5-methoxyphenyl)piperidin-4-yl)piperazin-1-yl)ethyl)-2-oxobenzo[d]oxazol-3(2H)-yl)piperidine-2,6-dione], in assay [1], the DC50 was 0.867 nM and the Dmax turned out to be 96.3%. In addition, in assay [2], the DC50 stood at 0.582 nM and the “Dmax (%) H1975 # 28 DTC” value was 73.22%.

For the molecule `CCOc1cc(N2CCC(N3CCN(CCc4cc(F)c([C@H]5CCC(=O)NC5=O)c(F)c4)CC3)CC2)c(CC)cc1Nc1ncc(Br)c(Nc2ccc3c(=O)n(CC)ncc3c2P(C)(C)=O)n1` [Example 679, (R)-3-(4-(2-(4-(1-(4-((5-bromo-4-((5-(dimethylphosphoryl)-2-ethyl-1-oxo-1,2-dihydrophthalazin-6-yl)amino)pyrimidin-2-yl)amino)-5-ethoxy-2-ethylphenyl)piperidin-4-yl)piperazin-1-yl)ethyl)-2,6-difluorophenyl)piperidine-2,6-dione], in assay [1], the DC50 is 22.6 nM and the maximal degradation (Dmax) amounted to 93.3%. In assay [2], the 50% degradation concentration (DC50) worked out at 1.75 nM and the “Dmax (%) H1975 # 28 DTC” value is 83.46%.

Regarding `CCc1cc(Nc2ncc(Br)c(Nc3ccc4nc(C(C)(C)O)ccc4c3P(C)(C)=O)n2)c(OC)cc1N1CCC(N2CCN(C(=O)[C@@H]3CCN(c4cc(F)c(C5CCC(=O)NC5=O)c(F)c4)C3)CC2)CC1` (stereo partly drawn) [Example 680, 3-(4-((R)-3-(4-(1-(4-((5-bromo-4-((5-(dimethylphosphoryl)-2-(2-hydroxypropan-2-yl)quinolin-6-yl)amino)pyrimidin-2-yl)amino)-2-ethyl-5-methoxyphenyl)piperidin-4-yl)piperazine-1-carbonyl)pyrrolidin-1-yl)-2,6-difluorophenyl)piperidine-2,6-dione], in assay [1], the DC50 was determined as 4.96 nM and the Dmax is 95.1%. In assay [2], the half-maximal degradation concentration (DC50) was 0.763 nM and the “Dmax (%) H1975 # 28 DTC” value turned out to be 85.2%.

In the case of `CCOc1cc(N2CCC(N3CCN(CCc4c(F)ccc5c4n(CC)c(=O)n5C4CCC(=O)NC4=O)CC3)CC2)c(CC)cc1Nc1ncc(Br)c(Nc2ccc3nc(CC)ccc3c2P(C)(C)=O)n1` (centres unmarked) [Example 558, 3-(4-(2-(4-(1-(4-((5-bromo-4-((5-(dimethylphosphoryl)-2-ethylquinolin-6-yl)amino)pyrimidin-2-yl)amino)-5-ethoxy-2-ethylphenyl)piperidin-4-yl)piperazin-1-yl)ethyl)-3-ethyl-5-fluoro-2-oxo-2,3-dihydro-1H-benzo[d]imidazol-1-yl)piperidine-2,6-dione], in assay [1], the DC50 was determined as 13.1 nM. Also, in assay [2], the 50% degradation concentration (DC50) turned out to be 2.59 nM and the “Dmax (%) H1975 # 28 DTC” value was 85.18%.

For the molecule `CCOc1cc(N2CCC(N3CCN(CCc4c(F)ccc5c4C(C)(C)C(=O)N5C4CCC(=O)NC4=O)CC3)CC2)c(CC)cc1Nc1ncc(Br)c(Nc2ccc3nc(CC)ccc3c2P(C)(C)=O)n1` (centres unmarked) [Example 647, 3-(4-(2-(4-(1-(4-((5-bromo-4-((5-(dimethylphosphoryl)-2-ethylquinolin-6-yl)amino)pyrimidin-2-yl)amino)-5-ethoxy-2-ethylphenyl)piperidin-4-yl)piperazin-1-yl)ethyl)-5-fluoro-3,3-dimethyl-2-oxoindolin-1-yl)piperidine-2,6-dione], in assay [1], the half-maximal degradation concentration (DC50) amounted to 13.2 nM and the greatest degradation seen (Dmax) came to 93.2%. In assay [2], the 50% degradation concentration (DC50) is 2 nM and the “Dmax (%) H1975 # 28 DTC” value turned out to be 66.66%.

In the case of `CCOc1cc(N2CCC(N3CCN(CCCOc4cc(F)c([C@H]5CCC(=O)NC5=O)c(F)c4)CC3)CC2)c(CC)cc1Nc1ncc(Br)c(Nc2ccc3c(=O)n(CC)ncc3c2P(C)(C)=O)n1` [Example 735, (R)-3-(4-(3-(4-(1-(4-((5-bromo-4-((5-(dimethylphosphoryl)-2-ethyl-1-oxo-1,2-dihydrophthalazin-6-yl)amino)pyrimidin-2-yl)amino)-5-ethoxy-2-ethylphenyl)piperidin-4-yl)piperazin-1-yl)propoxy)-2,6-difluorophenyl)piperidine-2,6-dione], in assay [1], the DC50 was 18 nM and the greatest degradation seen (Dmax) was 87.4%. In assay [2], the DC50 was determined as 0.641 nM and the “Dmax (%) H1975 # 28 DTC” value was found to be 80.09%.

Regarding `CCOc1cc(N2CCC(N3CCN(CCc4cc5oc(=O)n(C6CCC(=O)NC6=O)c5cc4F)CC3)CC2)c(CC)cc1Nc1ncc(Br)c(Nc2ccc3c(=O)n(CC)ncc3c2P(C)(C)=O)n1` (centres unmarked) [Example 628, 3-(6-(2-(4-(1-(4-((5-bromo-4-((5-(dimethylphosphoryl)-2-ethyl-1-oxo-1,2-dihydrophthalazin-6-yl)amino)pyrimidin-2-yl)amino)-5-ethoxy-2-ethylphenyl)piperidin-4-yl)piperazin-1-yl)ethyl)-5-fluoro-2-oxobenzo[d]oxazol-3(2H)-yl)piperidine-2,6-dione], in assay [1], the DC50 is 3.24 nM and the Dmax was determined as 92.3%. In assay [2], the DC50 was determined as 0.715 nM and the “Dmax (%) H1975 # 28 DTC” value is given as 76.12%.

Take `CCc1cc(Nc2ncc(Br)c(Nc3ccc4nccnc4c3P(C)(C)=O)n2)c(OC)cc1N1CCC(N2CCN(CCc3cc(F)c([C@H]4CCC(=O)NC4=O)c(F)c3)CC2)CC1` [Example 751, (R)-3-(4-(2-(4-(1-(4-((5-bromo-4-((5-(dimethylphosphoryl)quinoxalin-6-yl)amino)pyrimidin-2-yl)amino)-2-ethyl-5-methoxyphenyl)piperidin-4-yl)piperazin-1-yl)ethyl)-2,6-difluorophenyl)piperidine-2,6-dione]: the half-maximal degradation concentration (DC50) in assay [1] worked out at 9.43 nM. In addition, in assay [2], the half-maximal degradation concentration (DC50) was found to be 0.759 nM and the “Dmax (%) H1975 # 28 DTC” value came to 92.19%.

Turning to `COc1cc(N2CCC(N3CCN(C(=O)[C@@H]4CCN(c5cc(F)c([C@H]6CCC(=O)NC6=O)c(F)c5)C4)CC3)CC2)c(C)cc1Nc1ncc(Br)c(Nc2ccc3c(=O)n(C)ncc3c2P(C)(C)=O)n1` [Example 527, (R)-3-(4-((R)-3-(4-(1-(4-((5-bromo-4-((5-(dimethylphosphoryl)-2-methyl-1-oxo-1,2-dihydrophthalazin-6-yl)amino)pyrimidin-2-yl)amino)-5-methoxy-2-methylphenyl)piperidin-4-yl)piperazine-1-carbonyl)pyrrolidin-1-yl)-2,6-difluorophenyl)piperidine-2,6-dione], in assay [1], the DC50 amounted to 1.77 nM and the Dmax was found to be 93.4%. In assay [2], the DC50 was 0.583 nM and the “Dmax (%) H1975 # 28 DTC” value was determined as 85.27%.

For `CCc1ccc2c(P(C)(C)=O)c(Nc3nc(Nc4cc(CC)c(N5CCC(N6CCN(CC7CN(c8cc(F)c(C9CCC(=O)NC9=O)c(F)c8)C7)CC6)CC5)cc4OC)ncc3Br)ccc2n1` (centres unmarked) [Example 508, 3-(4-(3-((4-(1-(4-((5-bromo-4-((5-(dimethylphosphoryl)-2-ethylquinolin-6-yl)amino)pyrimidin-2-yl)amino)-2-ethyl-5-methoxyphenyl)piperidin-4-yl)piperazin-1-yl)methyl)azetidin-1-yl)-2,6-difluorophenyl)piperidine-2,6-dione], in assay [1], the DC50 amounted to 14.7 nM and the Dmax came to 89.3%. Moreover, in assay [2], the DC50 was 1 nM and the “Dmax (%) H1975 # 28 DTC” value amounted to 72.7%.

With `CCOc1cc(N2CCC(N3CCN(CCCc4cc(OC)cc5c4oc(=O)n5C4CCC(=O)NC4=O)CC3)CC2)c(CC)cc1Nc1ncc(Br)c(Nc2ccc3nc(CC)ccc3c2P(C)(C)=O)n1` (centres unmarked) [Example 597, 3-(7-(3-(4-(1-(4-((5-bromo-4-((5-(dimethylphosphoryl)-2-ethylquinolin-6-yl)amino)pyrimidin-2-yl)amino)-5-ethoxy-2-ethylphenyl)piperidin-4-yl)piperazin-1-yl)propyl)-5-methoxy-2-oxobenzo[d]oxazol-3(2H)-yl)piperidine-2,6-dione], in assay [1], the 50% degradation concentration (DC50) stood at 28.2 nM and the maximal degradation (Dmax) is 90.1%. In addition, in assay [2], the DC50 was found to be 1.59 nM and the “Dmax (%) H1975 # 28 DTC” value stood at 75.93%.

Turning to `CCOc1cc(N2CCC(N3CCN(CCc4ccc5c(oc(=O)n5C5CCC(=O)NC5=O)c4Cl)CC3)CC2)c(CC)cc1Nc1ncc(Br)c(Nc2ccc3nc(CC)ccc3c2P(C)(C)=O)n1` (centres unmarked) [Example 624, 3-(6-(2-(4-(1-(4-((5-bromo-4-((5-(dimethylphosphoryl)-2-ethylquinolin-6-yl)amino)pyrimidin-2-yl)amino)-5-ethoxy-2-ethylphenyl)piperidin-4-yl)piperazin-1-yl)ethyl)-7-chloro-2-oxobenzo[d]oxazol-3(2H)-yl)piperidine-2,6-dione], in assay [1], the DC50 is 21.9 nM and the Dmax is 95.4%. In addition, in assay [2], the DC50 is 1.05 nM and the “Dmax (%) H1975 # 28 DTC” value turned out to be 73.81%.
